Results reported in patent US12312332B2 (Merck Sharp & Dohme LLC., priority 2019, dated 2025).
pEC50: −log10 of the molar value.

Target: T1, human OX2R (Homo sapiens, UniProt O43614)
T1 construct: expressed in transfected cells; host or cells: Chinese hamster ovary (CHO) cells, kept under G418 selection
T1 sequence (O43614 1-444): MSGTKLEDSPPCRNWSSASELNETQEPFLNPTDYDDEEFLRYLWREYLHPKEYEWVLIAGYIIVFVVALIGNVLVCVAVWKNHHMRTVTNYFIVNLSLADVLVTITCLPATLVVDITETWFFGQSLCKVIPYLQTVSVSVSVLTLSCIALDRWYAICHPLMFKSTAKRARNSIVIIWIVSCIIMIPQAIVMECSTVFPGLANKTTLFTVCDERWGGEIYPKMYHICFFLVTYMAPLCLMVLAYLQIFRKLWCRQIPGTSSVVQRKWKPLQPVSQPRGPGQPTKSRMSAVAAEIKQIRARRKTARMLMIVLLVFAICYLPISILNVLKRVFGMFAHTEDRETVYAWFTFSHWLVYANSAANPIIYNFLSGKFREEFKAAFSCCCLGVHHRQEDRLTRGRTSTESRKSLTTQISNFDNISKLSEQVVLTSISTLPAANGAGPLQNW
Assay: IPOne (IP-One) orexin receptor agonist assay in CHO cells expressing human OX2R
Assay type: cell-based
Conditions: for pEC50: CHO cells expressing human OX2R, IP-One detection, 2 hours incubation, four parameter logistic fit, read-out: OX2R Potency, EC50; for % max agonist effect (Emax): human OX2R, percentage of sample raw value/mean max effect (reference compound at 1 uM with 100% activity)

pEC50 | % max agonist effect (Emax) [%] | Structure (SMILES)
5.24 | 78.6 | CS(=O)(=O)N[C@H]1CCN(c2ccnc(C#N)c2)[C@H]1CO[C@H]1CC[C@@H](c2ccccc2)CC1 [Example 25, N-((2R,3S)-1-(2-cyanopyridin-4-yl)-2-((((CIS)-4-phenylcyclohexyl)oxy)methyl)pyrrolidin-3-yl)methanesulfonamide]
6.75 | 99.2 | CS(=O)(=O)N[C@H]1CCN(c2cnc(C3CC3)cn2)[C@H]1CO[C@H]1CC[C@@H](c2ccccc2)CC1 [Example 66, N-((2R,3S)-1-(5-cyclopropylpyrazin-2-yl)-2-((((CIS)-4-phenylcyclohexyl)oxy)methyl)pyrrolidin-3-yl)methanesulfonamide]
6.46 | 97.6 | COc1cccc(N2CC[C@H](NS(C)(=O)=O)[C@@H]2CO[C@H]2CC[C@@H](c3ccccc3)CC2)n1 [Example 152, N-((2R,3S)-1-(6-methoxypyridin-2-yl)-2-((((CIS)-4-phenylcyclohexyl)oxy)methyl)pyrrolidin-3-yl)methanesulfonamide]
9.22 | 100.9 | CS(=O)(=O)N[C@H]1CCN(c2cc(O)c(Cl)cn2)[C@H]1CO[C@H]1CC[C@@H](c2cccc(F)c2)CC1 [Example 97, N-((2R,3S)-1-(5-chloro-4-hydroxypyridin-2-yl)-2-((((CIS)-4-(3-fluorophenyl)cyclohexyl)oxy)methyl)pyrrolidin-3-yl)methanesulfonamide]
7.28 | 100.5 | CS(=O)(=O)N[C@H]1CCN(c2cc[nH]c(=O)c2)[C@H]1CO[C@H]1CC[C@@H](c2ccccc2)CC1 [Example 154, N-((2R,3S)-1-(2-oxo-1,2-dihydropyridin-4-yl)-2-((((CIS)-4-phenylcyclohexyl)oxy)methyl)pyrrolidin-3-yl)methanesulfonamide]
7.75 | 102 | CS(=O)(=O)N[C@H]1CCN(c2cscn2)[C@H]1CO[C@H]1CC[C@@H](c2ccccc2)CC1 [Example 110, N-((2R,3S)-2-((((CIS)-4-phenylcyclohexyl)oxy)methyl)-1-(thiazol-4-yl)pyrrolidin-3-yl)methanesulfonamide]
5.66 | 92.6 | Cc1ccnc(N2CC[C@H](NS(C)(=O)=O)[C@@H]2CO[C@H]2CC[C@@H](c3ccccc3)CC2)n1 [Example 67, N-((2R,3S)-1-(4-methylpyrimidin-2-yl)-2-((((CIS)-4-phenylcyclohexyl)oxy)methyl)pyrrolidin-3-yl)methanesulfonamide]
9.52 | 99.6 | C[C@@H]1C[C@H](NS(=O)(=O)N(C)C)[C@H](CO[C@H]2CC[C@@H](c3cccc(F)c3)CC2)N1c1cc(O)c(F)cn1 [Example 94, N′-((2R,3S,5R)-1-(5-fluoro-4-hydroxypyridin-2-yl)-2-((((CIS)-4-(3-fluorophenyl)cyclohexyl)oxy)methyl)-5-methylpyrrolidin-3-yl)-N,N-dimethyl-sulfamide]
8.01 | 100.6 | CS(=O)(=O)N[C@H]1CCN(c2ccc(C#N)nc2)[C@H]1CO[C@H]1CC[C@@H](c2ccccc2)CC1 [Example 145, N-((2R,3S)-1-(6-cyanopyridin-3-yl)-2-((((CIS)-4-phenylcyclohexyl)oxy)methyl)pyrrolidin-3-yl)methanesulfonamide]
8.70 | 100.5 | CS(=O)(=O)N[C@H]1CCN(c2ncc(F)c(O)c2F)[C@H]1CO[C@H]1CC[C@@H](c2ccccc2)CC1 [Example 101, N-((2R,3S)-1-(3,5-difluoro-4-hydroxypyridin-2-yl)-2-((((CIS)-4-phenylcyclohexyl)oxy)methyl)pyrrolidin-3-yl)methanesulfonamide]

Structure (SMILES) | pEC50 | % max agonist effect (Emax) [%]
Cn1cnc(N2CC[C@H](NS(C)(=O)=O)[C@@H]2CO[C@H]2CC[C@@H](c3ccccc3)CC2)n1 [Example 14, N-((2R,3S)-1-(1-Methyl-1H-1,2,4-triazol-3-yl)-2-((((CIS)-4-phenylcyclohexyl)oxy)methyl)-pyrrolidin-3-yl)methanesulfonamide] | 5.43 | 87.9
